{"source": "patent US20140088306A1", "about": "“RADIOACTIVE FLUORINE-LABELED QUINOXALINE COMPOUND” (Nihon Medi-Physics Co., Ltd., priority 2012, published 2014)", "key": {"[1]": {"assay": "In vivo radioactivity distribution experiment in normal mouse (Example 16)", "design": "species or system ddY mice", "settings": "for Radioactivity Amount, Blood / Radioactivity Amount, Bone / Radioactivity Amount, Brain / Radioactivity Amount, Heart / Radioactivity Amount, Intestine / Radioactivity Amount, Kidney / Radioactivity Amount, Liver / Radioactivity Amount, Lung / Radioactivity Amount, Pancreas / Radioactivity Amount, Spleen / Radioactivity Amount, Stomach*: normal ddY mice, tail vein, average for 5 mice (SD)", "procedure": "An ethanol (10 μL)-containing saline solution of [^18F]D1 (25.8 kBq) or [^18F]D2 (48.2 kBq) (100 μL) was injected into the tail vein of ddY mice (male, 5-week old). Five mice were used for each group and sacrificed 2, 10, 30, and 60 minutes after administration to remove major organs. The blood and organs were weighed and further measured for radioactivity using a γ counter (Wallac 1470 Wizard 3, from Perkin-Elmer). The percent injected dose per organ was calculated by comparing tissue counts with suitably diluted aliquots of the injected material. The percent injected dose/g of each sample was calculated by comparing sample counts with the counts of the diluted initial dose."}, "Aβ plaques": {"test_system": "Aβ plaques", "assay": "In vitro autoradiography using postmortem brain section from Alzheimer's disease (Examples 14, 15)", "format": "binding, human (Alzheimer's disease patient)", "settings": "brain section of Alzheimer's disease patient", "procedure": "A postmortem autopsy brain tissue of a patient with Alzheimer's disease identified by postmortem dissection was obtained from Graduate School of Medicine, Kyoto University. The presence and location of senile plaques in the section were confirmed by immunohistochemical staining using an anti-Aβ1-42 antibody. The section was incubated together with [^18F]D1 or [^18F]D2 (0.37 MBq/100 μL) at room temperature for 1 hour. The resultant was immersed in a 50 volume % ethanol aqueous solution (2 minutes×2) and washed with water (2 minutes×2). After drying, the section was exposed to BAS imaging plate (from Fujifilm Corporation) for 1.5 hours. The image of autoradiography was obtained using BAS5000 scanner system (from Fujifilm Corporation).\nA postmortem autopsy brain tissue of a patient with Alzheimer's disease identified by postmortem dissection was obtained from Graduate School of Medicine, Kyoto University, and serial sections […] of a paraffin-embedded brain tissue were used. First, they were each incubated with xylene (15 minutes×2), ethanol (1 minute×2), a 90 volume % ethanol aqueous solution (1 minute×2), and a 70 volume % ethanol aqueous solution (1 minute×1) in that order to perfectly perform deparaffinization, and then washed in water (2.5 minutes×2). Thereafter, for antibody recovery, the section was subjected to autoclave treatment for 15 minutes in 0.01 mol/L citrate buffer solution (pH 6.0). The resultant was incubated in PBS-Tween20 (5 minutes×2), and, for antibody recovery, incubated in a 90 volume % formic acid aqueous solution at room temperature for 5 minutes. The section was washed for 5 minutes with flowing tap water, and then incubated in PBS-Tween20 (2 minutes×1). The section was incubated with a mouse anti-Aβ1-42 monoclonal primary antibody (from Wako Pure Chemical Industries Ltd.) at room temperature overnight. The resultant was incubated in PBS-Tween20 (5 minutes×3) and then incubated together with biotin goat anti-mouse IgG (from Funakoshi Co., Ltd.) at room temperature for 1 hour. […]"}}, "note": "Entries after “also recorded” stand apart in the source; their conditions may differ."}
{"compound": "4-(6-(2-[^18F]Fluoroethoxy)quinoxalin-2-yl)-N-methylaniline [[^18F]D2]", "values": [{"measurement": "Radioactivity Amount, Blood", "setting": "[1]; 2 min. after", "value": "3.91 (0.22) % injected dose/g"}, {"measurement": "Radioactivity Amount, Blood", "setting": "[1]; 10 min. after", "value": "3.35 (0.43) % injected dose/g"}, {"measurement": "Radioactivity Amount, Blood", "setting": "[1]; 30 min. after", "value": "3.83 (0.18) % injected dose/g"}, {"measurement": "Radioactivity Amount, Blood", "setting": "[1]; 60 min. after", "value": "4.15 (0.31) % injected dose/g"}, {"measurement": "Radioactivity Amount, Bone", "setting": "[1]; 2 min. after", "value": "2.81 (0.52) % injected dose/g"}, {"measurement": "Radioactivity Amount, Bone", "setting": "[1]; 10 min. after", "value": "2.12 (0.11) % injected dose/g"}, {"measurement": "Radioactivity Amount, Bone", "setting": "[1]; 30 min. after", "value": "2.86 (0.45) % injected dose/g"}, {"measurement": "Radioactivity Amount, Bone", "setting": "[1]; 60 min. after", "value": "4.26 (0.29) % injected dose/g"}, {"measurement": "Radioactivity Amount, Brain", "setting": "[1]; 2 min. after", "value": "6.19 (0.30) % injected dose/g"}, {"measurement": "Radioactivity Amount, Brain", "setting": "[1]; 10 min. after", "value": "5.11 (0.28) % injected dose/g"}, {"measurement": "Radioactivity Amount, Brain", "setting": "[1]; 30 min. after", "value": "2.73 (0.16) % injected dose/g"}, {"measurement": "Radioactivity Amount, Brain", "setting": "[1]; 60 min. after", "value": "2.41 (0.12) % injected dose/g"}, {"measurement": "Radioactivity Amount, Heart", "setting": "[1]; 2 min. after", "value": "6.12 (0.45) % injected dose/g"}, {"measurement": "Radioactivity Amount, Heart", "setting": "[1]; 10 min. after", "value": "3.93 (0.40) % injected dose/g"}, {"measurement": "Radioactivity Amount, Heart", "setting": "[1]; 30 min. after", "value": "3.20 (0.32) % injected dose/g"}, {"measurement": "Radioactivity Amount, Heart", "setting": "[1]; 60 min. after", "value": "3.80 (0.22) % injected dose/g"}, {"measurement": "Radioactivity Amount, Intestine", "setting": "[1]; 2 min. after", "value": "3.40 (0.34) % injected dose/g"}, {"measurement": "Radioactivity Amount, Intestine", "setting": "[1]; 10 min. after", "value": "8.06 (0.95) % injected dose/g"}, {"measurement": "Radioactivity Amount, Intestine", "setting": "[1]; 30 min. after", "value": "12.13 (2.05) % injected dose/g"}, {"measurement": "Radioactivity Amount, Intestine", "setting": "[1]; 60 min. after", "value": "13.37 (1.03) % injected dose/g"}, {"measurement": "Radioactivity Amount, Kidney", "setting": "[1]; 2 min. after", "value": "9.86 (0.77) % injected dose/g"}, {"measurement": "Radioactivity Amount, Kidney", "setting": "[1]; 10 min. after", "value": "6.40 (0.62) % injected dose/g"}, {"measurement": "Radioactivity Amount, Kidney", "setting": "[1]; 30 min. after", "value": "4.14 (0.31) % injected dose/g"}, {"measurement": "Radioactivity Amount, Kidney", "setting": "[1]; 60 min. after", "value": "3.08 (0.21) % injected dose/g"}, {"measurement": "Radioactivity Amount, Liver", "setting": "[1]; 2 min. after", "value": "8.81 (1.00) % injected dose/g"}, {"measurement": "Radioactivity Amount, Liver", "setting": "[1]; 10 min. after", "value": "9.29 (0.40) % injected dose/g"}, {"measurement": "Radioactivity Amount, Liver", "setting": "[1]; 30 min. after", "value": "7.07 (0.19) % injected dose/g"}, {"measurement": "Radioactivity Amount, Liver", "setting": "[1]; 60 min. after", "value": "6.10 (0.41) % injected dose/g"}, {"measurement": "Radioactivity Amount, Lung", "setting": "[1]; 2 min. after", "value": "8.13 (1.13) % injected dose/g"}, {"measurement": "Radioactivity Amount, Lung", "setting": "[1]; 10 min. after", "value": "5.10(0.74) % injected dose/g"}, {"measurement": "Radioactivity Amount, Lung", "setting": "[1]; 30 min. after", "value": "3.94 (0.33) % injected dose/g"}, {"measurement": "Radioactivity Amount, Lung", "setting": "[1]; 60 min. after", "value": "3.92 (0.11) % injected dose/g"}, {"measurement": "Radioactivity Amount, Pancreas", "setting": "[1]; 2 min. after", "value": "6.47 (0.75) % injected dose/g"}, {"measurement": "Radioactivity Amount, Pancreas", "setting": "[1]; 10 min. after", "value": "3.88 (0.52) % injected dose/g"}, {"measurement": "Radioactivity Amount, Pancreas", "setting": "[1]; 30 min. after", "value": "2.72 (0.29) % injected dose/g"}, {"measurement": "Radioactivity Amount, Pancreas", "setting": "[1]; 60 min. after", "value": "2.64 (0.34) % injected dose/g"}, {"measurement": "Radioactivity Amount, Spleen", "setting": "[1]; 2 min. after", "value": "3.14 (0.55) % injected dose/g"}, {"measurement": "Radioactivity Amount, Spleen", "setting": "[1]; 10 min. after", "value": "3.76 (0.55) % injected dose/g"}, {"measurement": "Radioactivity Amount, Spleen", "setting": "[1]; 30 min. after", "value": "3.07 (0.32) % injected dose/g"}, {"measurement": "Radioactivity Amount, Spleen", "setting": "[1]; 60 min. after", "value": "2.99 (0.21) % injected dose/g"}, {"measurement": "Radioactivity Amount, Stomach*", "setting": "[1]; 2 min. after", "value": "1.32 (0.21) % injected dose per organ"}, {"measurement": "Radioactivity Amount, Stomach*", "setting": "[1]; 10 min. after", "value": "1.86 (0.38) % injected dose per organ"}, {"measurement": "Radioactivity Amount, Stomach*", "setting": "[1]; 30 min. after", "value": "2.44 (0.62) % injected dose per organ"}, {"measurement": "Radioactivity Amount, Stomach*", "setting": "[1]; 60 min. after", "value": "2.00 (0.76) % injected dose per organ"}, {"measurement": "binding to / background in the white matter by autoradiography", "setting": "Aβ plaques", "value": "low degree of background in the white matter"}, {"measurement": "labeling of Aβ plaques by autoradiography", "setting": "Aβ plaques; 0.37 MBq/100 μL, 1 hour", "value": "provided a strong marker for Aβ plaques; also recorded: corresponded to the results of antibody immunohistochemical staining"}]}
{"compound": "Nc1ccc(-c2cnc3cc(OCC[18F])ccc3n2)cc1", "note": "[[^18F]D1, 4-(6-(2-[^18F]Fluoroethoxy)quinoxalin-2-yl)aniline]", "values": [{"measurement": "Radioactivity Amount, Liver", "setting": "[1]; 2 min. after", "value": "5.30 (1.33) % injected dose/g"}, {"measurement": "Radioactivity Amount, Liver", "setting": "[1]; 10 min. after", "value": "6.58 (0.47) % injected dose/g"}, {"measurement": "Radioactivity Amount, Liver", "setting": "[1]; 30 min. after", "value": "4.90 (0.29) % injected dose/g"}, {"measurement": "Radioactivity Amount, Liver", "setting": "[1]; 60 min. after", "value": "4.88 (0.30) % injected dose/g"}, {"measurement": "amount of radioactivity in the brain", "setting": "[1]; mouse, in vivo", "value": "2.41-3.08 % ID/g"}, {"measurement": "binding to / background in the white matter by autoradiography", "setting": "Aβ plaques", "value": "high non-specific binding to the white matter"}]}
